# Assay results as given in ChEMBL document CHEMBL3124761, “Synthesis and biological evaluation of N,N'-squaramides with high in vivo efficacy and low toxicity: toward a low-cost drug against Chagas disease” (J Med Chem, 2014).
# Calls of active or inactive are those of the source. The calls are words filed in the database; no cut-off is given here.
# Assays:
# [1] = tested on: Mus musculus; experiment: Toxicity in BALB/c albino mouse infected with blood trypomastigote stage of Trypanosoma cruzi assessed as decrease in alkaline phosphatase level in serum at 40 mg/kg, ip administered on day 7 to 12 post-infection measured after day 150 relative to control; type: organism-based; parameters: dose 40 mg/kg, route intraperitoneal; scale not given: the % may be the effect or the level left; settings: in vivo
# [2] = tested on: Mus musculus; experiment: Toxicity in BALB/c albino mouse infected with blood trypomastigote stage of Trypanosoma cruzi assessed as decrease in alkaline phosphatase level in serum at 25 mg/kg, ip administered on day 7 to 12 post-infection measured after day 120 relative to control; type: organism-based; parameters: dose 25 mg/kg, route intraperitoneal; scale not given: the % may be the effect or the level left; settings: in vivo
# [3] = tested on: Mus musculus; experiment: Toxicity in BALB/c albino mouse infected with blood trypomastigote stage of Trypanosoma cruzi assessed as increase in total bilirubin level in serum at 500 mg/kg, ip relative to control; type: organism-based; parameters: dose 500 mg/kg, route intraperitoneal; settings: in vivo
# [4] = tested on: Mus musculus; experiment: Toxicity in BALB/c albino mouse infected with blood trypomastigote stage of Trypanosoma cruzi assessed as change in ALT/GPT level in serum at 500 mg/kg, ip relative to control; type: organism-based; parameters: dose 500 mg/kg, route intraperitoneal; settings: in vivo
# [5] = tested on: Mus musculus; experiment: Toxicity in BALB/c albino mouse infected with blood trypomastigote stage of Trypanosoma cruzi assessed as decrease in ALT/GPT level in serum at 40 mg/kg, ip administered on day 7 to 12 post-infection measured after day 150 relative to control; type: organism-based; parameters: dose 40 mg/kg, route intraperitoneal; scale not given: the % may be the effect or the level left; settings: in vivo
# [6] = tested on: Mus musculus; experiment: Toxicity in BALB/c albino mouse infected with blood trypomastigote stage of Trypanosoma cruzi assessed as change in ALT/GPT level in serum at 25 mg/kg, ip administered on day 7 to 12 post-infection measured after day 120 relative to control; type: organism-based; parameters: dose 25 mg/kg, route intraperitoneal; settings: in vivo
# [7] = tested on: Mus musculus; experiment: Toxicity in BALB/c albino mouse infected with blood trypomastigote stage of Trypanosoma cruzi assessed as increase in AST/GOT level in serum at 40 mg/kg, ip administered on day 7 to 12 post-infection measured after day 150 relative to control; type: organism-based; parameters: dose 40 mg/kg, route intraperitoneal; settings: in vivo
# [8] = tested on: Mus musculus; experiment: Toxicity in BALB/c albino mouse infected with blood trypomastigote stage of Trypanosoma cruzi assessed as increase in LDH level in serum at 40 mg/kg, ip administered on day 7 to 12 post-infection measured after day 150 relative to control; type: organism-based; parameters: dose 40 mg/kg, route intraperitoneal; settings: in vivo
# [9] = tested on: Mus musculus; experiment: Toxicity in BALB/c albino mouse infected with blood trypomastigote stage of Trypanosoma cruzi assessed as increase in LDH level in serum at 25 mg/kg, ip administered on day 7 to 12 post-infection measured after day 120 relative to control; type: organism-based; parameters: dose 25 mg/kg, route intraperitoneal; settings: in vivo
# [10] = tested on: Mus musculus; experiment: Toxicity in BALB/c albino mouse infected with blood trypomastigote stage of Trypanosoma cruzi assessed as increase in creatinephophokinase-MB level in serum at 500 mg/kg, ip relative to control; type: organism-based; parameters: dose 500 mg/kg, route intraperitoneal; settings: in vivo
# [11] = tested on: Mus musculus; experiment: Toxicity in BALB/c albino mouse infected with blood trypomastigote stage of Trypanosoma cruzi assessed as change in creatinephophokinase-MB level in serum at 40 mg/kg, ip administered on day 7 to 12 post-infection measured after day 150 relative to control; type: organism-based; parameters: dose 40 mg/kg, route intraperitoneal; settings: in vivo
# [12] = tested on: Mus musculus; experiment: Toxicity in BALB/c albino mouse infected with blood trypomastigote stage of Trypanosoma cruzi assessed as change in creatinephophokinase-MB level in serum at 25 mg/kg, ip administered on day 7 to 12 post-infection measured after day 120 relative to control; type: organism-based; parameters: dose 25 mg/kg, route intraperitoneal; settings: in vivo
# [13] = tested on: Mus musculus; experiment: Toxicity in BALB/c albino mouse infected with blood trypomastigote stage of Trypanosoma cruzi assessed as change in uric acid level in serum at 500 mg/kg, ip; type: organism-based; parameters: dose 500 mg/kg, route intraperitoneal; settings: in vivo
# [14] = tested on: Mus musculus; experiment: Toxicity in BALB/c albino mouse infected with blood trypomastigote stage of Trypanosoma cruzi assessed as change in uric acid level in serum at 40 mg/kg, ip administered on day 7 to 12 post-infection measured after day 150 relative to control; type: organism-based; parameters: dose 40 mg/kg, route intraperitoneal; settings: in vivo
# [15] = tested on: Mus musculus; experiment: Toxicity in BALB/c albino mouse infected with blood trypomastigote stage of Trypanosoma cruzi assessed as increase in uric acid level in serum at 25 mg/kg, ip administered on day 7 to 12 post-infection measured after day 120 relative to control; type: organism-based; parameters: dose 25 mg/kg, route intraperitoneal; settings: in vivo
# [16] = tested on: Mus musculus; experiment: Toxicity in BALB/c albino mouse infected with blood trypomastigote stage of Trypanosoma cruzi assessed as increase in urea level in serum at 500 mg/kg, ip; type: organism-based; parameters: dose 500 mg/kg, route intraperitoneal; settings: in vivo
# [17] = tested on: Trypanosoma cruzi; experiment: Trypanocidal activity against blood trypomastigote stage of Trypanosoma cruzi infected in immunosuppressed BALB/c albino mouse chronic chagas disease model assessed as decrease in parasite burden in heart at 40 mg/kg, ip administered on day 7 to 12 post-infection measured on day 150 by PCR analysis relative to control; type: functional; parameters: scale not given: the % may be the effect or the level left; settings: route intraperitoneal
# [18] = tested on: Trypanosoma cruzi; experiment: Trypanocidal activity against blood trypomastigote stage of Trypanosoma cruzi infected in immunosuppressed BALB/c albino mouse chronic chagas disease model assessed as cyclophosphamide-induced reactivation of parasitemia at 40 mg/kg, ip administered on day 7 to 12 post-infection measured after day 150 (reference value: 98.1%); type: functional; settings: route intraperitoneal
# [19] = tested on: Trypanosoma cruzi; experiment: Trypanocidal activity against metacyclic trypomastigote stage of Trypanosoma cruzi infected in BALB/c albino mouse acute chagas disease model assessed as inhibition of parasitemia at 25 mg/kg, ip administered on day 7 to 12 post-infection measured every 2 days until day 40 […] relative to control; type: functional; settings: route intraperitoneal
# [20] = tested on: Mus musculus; experiment: Toxicity in BALB/c albino mouse assessed as mortality at 25 mg/kg, ip administered for 5 days; type: organism-based; parameters: dose 25 mg/kg, route intraperitoneal; settings: in vivo, 120 h
# [21] = tested on: Trypanosoma cruzi; experiment: (§1) Antitrypanosomal activity against trypomastigote stage of Trypanosoma cruzi IRHOD/CO/2008/SN3 assessed as reduction of trypomastigote number per mililiter of culture medium at IC25 preincubated for 12 hrs followed by compound washout measured every 48 hrs for 10 days by Neubauer hemocytometric chamber analysis relative to control; type: functional
# [22] = tested on: Trypanosoma cruzi; experiment: as §1, with “amastigote” for “trypomastigote”, “IRHOD/CO/2008/SN3 infected in African green monkey Vero cells” for “IRHOD/CO/2008/SN3”, “cell” for “mililiter of culture medium”; type: functional
# [23] = tested on: Vero; experiment: Cytotoxicity against African green monkey Vero cells assessed as cell viability after 72 hrs by propidium iodide/fluorescein diacetate staining-based flow cytometric analysis; settings: Chlorocebus sabaeus
# [24] = tested on: Trypanosoma cruzi; experiment: Antitrypanosomal activity against epimastigote stage of Trypanosoma cruzi IRHOD/CO/2008/SN3 assessed as parasite growth inhibition after 72 hrs by Neubauer hemocytometric chamber analysis; type: functional, organism-based; settings: IRHOD/CO/2008/SN3, 72 h
# [25] = Dissociation constant, pKa of the compound in aqueous solution; type: physicochemical
# [26] = tested on: Trypanosoma cruzi; experiment: Antitrypanosomal activity against epimastigote stage of Trypanosoma cruzi IRHOD/CO/2008/SN3 assessed as mortality at IC25 after 72 hrs by TEM analysis; type: functional, organism-based
# [27] = tested on: Trypanosoma cruzi; experiment: Antitrypanosomal activity against epimastigote stage of Trypanosoma cruzi IRHOD/CO/2008/SN3 assessed as appearance of enormous reservosomes at IC25 after 72 hrs by TEM analysis; type: functional, organism-based
# [28] = tested on: Trypanosoma cruzi; experiment: Antitrypanosomal activity against epimastigote stage of Trypanosoma cruzi IRHOD/CO/2008/SN3 assessed as appearance of swollen structure filled with empty vacuoles at IC25 after 72 hrs by TEM analysis; type: functional, organism-based
# [29] = tested on: Trypanosoma cruzi; experiment: Antitrypanosomal activity against epimastigote stage of Trypanosoma cruzi IRHOD/CO/2008/SN3 assessed as change in excreted succinate level at IC25 after 96 hrs by 1H NMR analysis relative to control; type: functional
# [30] = tested on: Trypanosoma cruzi; experiment: Antitrypanosomal activity against epimastigote stage of Trypanosoma cruzi IRHOD/CO/2008/SN3 assessed as change in excreted pyruvate level at IC25 after 96 hrs by 1H NMR analysis relative to control; type: functional
# [31] = tested on: Trypanosoma cruzi; experiment: Antitrypanosomal activity against epimastigote stage of Trypanosoma cruzi IRHOD/CO/2008/SN3 assessed as change in excreted acetate level at IC25 after 96 hrs by 1H NMR analysis relative to control; type: functional
# [32] = tested on: Mus musculus; experiment: Toxicity in BALB/c albino mouse infected with blood trypomastigote stage of Trypanosoma cruzi assessed as increase in alkaline phosphatase level in serum at 500 mg/kg, ip relative to control; type: organism-based; parameters: dose 500 mg/kg, route intraperitoneal; settings: in vivo
structure (smiles),measurement,setting,value
CCCCNc1c(N(C)CCCN(C)C)c(=O)c1=O,Activity,[1],30%
same,Activity,[2],10%
same,Activity,[3],40%
same,Activity,[4],< 10%
same,Activity,[5],10%
same,Activity,[6],< 10%
same,Activity,[7],10%
same,Activity,[8],10%
same,Activity,[9],10%
same,Activity,[10],> 50%
same,Activity,[11],< 10%
same,Activity,[12],< 10%
same,Activity,[13],< 10%
same,Activity,[14],< 10%
same,Activity,[15],30%
same,Activity,[16],30%
same,Activity,[17],83.3%
same,Activity,[18],3.1%
same,inhibition in vivo at 25 mg/kg,[19],67%
same,Activity,[20],Non-toxic
same,inhibition (INH),[21],75%
same,inhibition (INH),[22],52%
same,IC50,[23],453 µM
same,IC50,[24],9.4 µM
same,pKa,[25],8.8
same,Activity,[26],Active
same,Activity,[27],Active
same,Activity,[28],Active
same,Activity,[29],-26.9%
same,Activity,[30],81.5%
same,Activity,[31],-18.6%
same,Activity,[32],> 50%
